“Also recorded” adds a separate entry of the source.
What was measured:
AR and AR-V7 = test: AR and AR variant expression (immunoblotting, qRT-PCR); assay type: cell-based, human
Protocol: Total RNA was isolated from cells in 6-well or 10-cm plates or from xenograft tumors, and the cDNA was prepared, amplified and measured in the presence of SYBR as previously^49. Briefly, the fluorescent values were collected and a melting curve analysis was performed. Fold difference was calculated as described previously^49. The experiments were performed at least three times with data presented as mean values±s.d. Cell lysates were analyzed by immunoblotting with antibodies specifically recognizing RORγ, AR, AR-V7 and the indicated proteins. The PCR primers and all the antibodies used in this study are described in the Tables 3 and 4.

AR = test: Anti-AR ChIP-seq; assay type: cell-based, human; settings: C4-2B cells, 5 μM, 24 hours
Protocol: C4-2B cells were treated with vehicle or SR2211 (5 μM) for 24 hours before harvested for ChIP-seq. ChIP-seq experiments were performed as described^65. Anti-AR ChIP-seq was repeated in two independent experiments. Antibodies used were against AR (Santa Cruz; sc-815); RNA Pol II (Santa cruz; sc-899); H3K4me2 (Abcam ab32356); H3K4me3 (Abcam; ab8580); H3 (acetyl K27) (Abcam; ab4729). Libraries were quantified with the Bioanalyzer 2100 (Agilent) and sequenced on the Illumina HiSeq 2000 Sequencer (BGI, Hong Kong). Sequencing tags were mapped against the Homo sapiens (Human) reference genome (hg19) using Bowtie 2^66. Uniquely mapped tags were used for peak calling by MACS(2.1.0)^67 to identify regions of ChIP-Seq enrichment over background. A q value threshold of enrichment of 5×10^−2 was used for all data sets. Normalized genome-wide signal coverage tracks from raw read alignment files were built by MACS2, UCSC tools (http://hgdownload.cse.ucsc.edu/admin/exe/linux.x86_64/bedGraphToBigWig/bedClip) and bedTools (http://code.google.com/p/bedtools/). Visualization of ChIP-seq signal at enriched genomic regions (avgprof and heatmap) was achieved by using ngs.plot (https://github.com/shenlab-sinai/ngsplot). ChIP-seq data have been deposited to NCBI-GEO with accession code GSE72714.

breast cancer cells = test: CellTiter-GLO viability, breast cancer cells; assay type: cell-based, human; settings: cells having different major molecular features, 4 days
Protocol: (§1) For cell viability, cells were seeded in 96-well plates at 1500-2500 cells per well (optimum density for growth) in a total volume of 100 μl media. Serially diluted compounds in […] of media were added to the cells 12 hours later. After 4 days of incubation, Cell-Titer GLO reagents (Promega) were added and luminescence was measured on GLOMAX microplate luminometer (Promega), according to the manufacturer's instructions. All experimental points were set up as sextuplicate as biological replication and the entire experiments were repeated three times. The data are presented as percentage of viable cells with vehicle treated cells set as 100. The estimated in vitro IC50 values were calculated using GraphPad Prism 6 software.
(§2) Using a CellTiter-GLO assay, the viability of cells of different cancer types was measured after treatment with different concentrations of RORγ small molecule inhibitors for 4 days.

[1] = test system: OVCAR420, T24, ECC1, HepG2, Hep3B, T98G, SUDHL4, SUDHL6, HCT116 and docetaxel-resistant C4-2B cells; test: CellTiter-GLO viability, cells of other cancer types; assay type: cell-based, human; settings: ovarian OVCAR420, bladder T24, endometrial ECC1, liver HepG2 and Hep3B, glioblastoma T98G, DLBCL SUDHL4 and SUDHL6, colon HCT116, docetaxel-resistant C4-2B; 4 days
Protocol: as §1, §2

MCF-7-TamR cell line = test: Growth of tamoxifen-resistant breast cancer cells; assay type: cell-based, human; settings: MCF-7 TamR cells, in combination with tamoxifen
Protocol: as §2

VCaP xenograft tumors = test: Spontaneous metastasis of VCaP xenografts (Alu-qPCR); assay type: in vivo, mice; settings: treated 23 d
Protocol: FIGS. 28A-28C show the in vivo effects of RORγ inhibition on tumor metastasis, mouse body weight and organ weight in xenograft models. FIG. 28A: Mice bearing VCaP xenografts as in FIG. 11D, treated with vehicle, SR2211, ENZ or combination for 23 d, were assessed for spontaneous metastasis to the femur (bone marrow) and liver. Genomic DNA isolated from these sites was analyzed for metastasized cells by measuring human Alu sequence (by Alu-qPCR). FIG. 28B: Body weight of mice from different treatment groups. FIG. 28C: Weight of indicated tissues from mice treated with vehicle or SR2211 for 24 days as in FIG. 11A of C4-2B xenograft model. Significance was calculated using Student's t-test, *p=0.01, n=6.

[2] = test system: H3K4me3 and H3K27ac at the RORE site and AR promoter; test: ChIP-qPCR at the AR-RORE site and AR promoter; assay type: cell-based, human; settings: C4-2B cells, 5 μM, 24 h
Protocol: ChIP-qPCR analysis was performed as described previously^49. The antibodies used for ChIP assay are AR (Santa Cruz; sc-815); RNA Pol-II (Santa cruz; sc-899); H3K4me2 (Abcam ab32356); H3K4me3 (Abcam; ab8580); H3K27ac (Abcam; ab4729); H3 (Active Motif; #39163); p300 (Santa Cruz; sc-585); SRC-1 (Santa Cruz; sc-8995); SRC-3/ACTR^64, and IgG (Santa Cruz; sc-2027). PCR primers used in the ChIP assays were listed in the Supplementary table 2. ChiPs were performed with each experimental point in triplicate, and each experiment was repeated three times.

OC(c1ccc(-c2ccc(CN3CCN(Cc4ccncc4)CC3)cc2)c(F)c1)(C(F)(F)F)C(F)(F)F [SR2211, 2-Fluoro-4′-[[4-(4-pyridinylmethyl)-1-piperazinyl]methyl]-a,a-bis (trifluoromethyl)-[1,1′-biphenyl]-4-methanol]
expression of AR and AR-V7 (AR and AR-V7; C4-2B and VCaP cells, 72 h): potently inhibited the expression of AR and AR-V7 in a dose-dependent manner
AR expression (AR and AR-V7; C4-2B cells, 5 μM, 24 hours): significant but incomplete suppression of AR expression
AR (full-length and spliced variants such as ARV7) mRNA and protein expression (AR and AR-V7; qRT-PCR and Western blotting, PCa cells): strongly inhibited the expression of AR
genome-wide AR binding to its target loci (AR): dramatic inhibition of genome-wide AR binding
growth and survival of breast cancer cells (breast cancer cells): strongly inhibited the growth and survival of breast cancer cells
growth and survival of cancer cells of other types [1]: significant inhibition of the growth and survival
sensitization of tamoxifen-resistant breast cancer cells to tamoxifen (MCF-7-TamR cell line): able to sensitize tamoxifen-resistant breast cancer cells to tamoxifen; also recorded: sensitized MCF-7 TamR cells to tamoxifen
metastasis to femur bone and liver (VCaP xenograft tumors): strongly inhibited the metastasis to femur bone and liver
gene activating marks H3K4me3 and H3K27ac at the RORE site and AR promoter [2]: strongly reduced

— patent US10959984B2, “Methods for treating cancer with RORγ inhibitors” (THE REGENTS OF THE UNIVERSITY OF CALIFORNIA, priority 2015, dated 2021)
